# Results reported in patent US20240108745A1, “BIOACTIVE SUBSTANCE CONJUGATE, PREPARATION METHOD THEREFOR AND USE THEREOF” (MEDILINK THERAPEUTICS (SUZHOU) CO., LTD., priority 2021, published 2024).
# Like-named read-outs stand apart in the source and are kept apart here.
# What was measured:
# [1] = human plasma 37° C., ADC 200 μg/mL, A1.9 released from B7H3-ADC-07(DAR8), DXD from B7H3-C1-ADC-21(DAR4)
# Experimental: The appropriate concentration of internal standard stock solution was prepared with DMSO, and then acetonitrile or other reagents were used to prepare the appropriate concentration of the internal standard-containing precipitant.
# Incubation of sample: the bacteriostatic agent ProClin was added to the plasma of each genera (human, cynomolgus monkey, ICR mouse) and PBS containing 1% BSA, and the final concentration of ProClin was 0.1%, Sterile operations were adopted. 40 μL working solution of test substance and 360 μL of human plasma were mixed to prepare 200 μg/mL of incubation sample. The plate was sealed with a film, and then incubated at 37° C. under 5% CO2 in an incubator, with a shaking speed of 80 times/mm. At 0 h, 4 h, 24 h, 2 d, 3 d, 7 d, 10 d, 14 d, 17 d, 21 d and 28 d, 20 μL of plasma sample was transferred, to which was added 200 μL of precipitant (containing internal standard), and completely mixed to precipitate the proteins.
# All samples were subject to protein precipitating, and then centrifuged to collect the supernatant, which was diluted with water, and analyzed by LC-MS/MS.
# [2] = Tumor tissue distribution of antibody drug conjugates in HT29 xenografts (A1.9 and ADC in plasma/serum and tumor); format: in vivo, BALB/c Nude mice; conditions: BALB/c Nude, mouse, intravenous, 10 mg/kg, HT29 model, read-out: distribution difference of A1.9 in tumors compared with plasma
# Experimental: Human colon cancer HT29 cells were purchased from ATCC. HT29 cells were adherently cultured in a […] culture dish, and the culture conditions were 1640 media containing 10% fetal bovine serum, and the cells were cultured at 37° C. in an incubator containing 5% CO2. When cells were in exponential growth phase, cells were digested with trypsin, harvested, counted, and inoculated.
# After adapting to the laboratory environment for 2-5 days, BALB/c Nude mice were subcutaneously inoculated with HT29 cells in the right rib, with an inoculation amount of 5×10^6 cells/mouse and an inoculation volume of 0.2 ml (containing 50% Matrigel). The experiment was carried out when the tumor grew to about 200-300 mm^3.
# The tumor tissue pieces were sheared into small size on ice, weighed and transferred to a grinding tube. The tissue homogenate was prepared by grinding them with normal saline solution at 1:5 (w/v); tissue homogenate supernatant was prepared by centrifugation for 10 min at 2˜8° C. and 1800× g, and then stored at −15˜−25° C. for use. Before use, it was taken out and left at 15-25° C., naturally warmed to room temperature, and then used.
# For the analysis method of A1.9, refer to Example 6.9. […]
smiles,measurement,setting,value
"CC[C@@]1(O)C(=O)OCc2c1cc1n(c2=O)Cc2c-1nc1cc3c(cc1c2CCCO)OCO3 [Example A1.9, (S)-7-ethyl-7-hydroxy-14-(3-hydroxypropyl)-10,13-dihydro-11H-[1,3]dioxolo[4,5-g]pyrano[3′,4′:6,7]indolizino[1,2-b]quinolin-8,11(7H)-dione]",Release ratio (%),[1]; day 0,0.14%
same,Release ratio (%),[1]; day 0.17,0.10%
same,Release ratio (%),[1]; day 1,0.11%
same,Release ratio (%),[1]; day 2,0.16%
same,Release ratio (%),[1]; day 3,0.14%
same,Release ratio (%),[1]; day 7,0.19%
same,Release ratio (%),[1]; day 10,0.24%
same,Release ratio (%),[1]; day 14,0.35%
same,Release ratio (%),[1]; day 17,0.40%
same,Release ratio (%),[1]; day 21,0.46%
same,Release ratio (%),[1]; day 28,0.82%
same,Kp,[2],≤ 18
